Measured values taken from patent US20100068150A1, “Selective Caspase Inhibitors” (The Board of Trustees of the Leland Stanford Junior …, priority 2006, published 2010).

Target: T1, FL-C7 (full-length caspase-7) (Homo sapiens, UniProt P55210)
T1 construct: the p37 band as the full-length caspase-7 with intact N-terminus (FL-C7); endogenous in cells
T1 sequence (P55210 1-303): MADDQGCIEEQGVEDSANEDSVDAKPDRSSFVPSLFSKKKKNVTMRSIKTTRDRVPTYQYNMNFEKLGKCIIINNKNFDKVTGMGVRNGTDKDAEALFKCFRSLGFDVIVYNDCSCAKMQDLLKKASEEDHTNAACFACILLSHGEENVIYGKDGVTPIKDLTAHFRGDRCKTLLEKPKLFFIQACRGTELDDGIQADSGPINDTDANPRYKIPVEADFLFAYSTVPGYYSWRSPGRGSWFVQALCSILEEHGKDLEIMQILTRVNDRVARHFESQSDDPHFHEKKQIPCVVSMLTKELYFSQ
Assay: Inhibitor specificity in hypotonic 293 extracts, full-length caspase-7
Assay type: biochemical
Settings: inhibitor 20 μM for 5 min, then KMB01 30 min
From the text: FIGS. 6 A-E illustrate that full-length active caspase-7 has unique inhibitor specificity and is processed to mature forms by downstream executioner caspases. (A) The caspase-3 specific inhibitor causes accumulation of a catalytically active full-length form of caspase-7. Cytosolic extracts from 293 cells were activated with cytochrome c/dATP for the indicated times followed by labeling with KMB01 (left panel) and western blotting with a caspase-7 specific antibody (right panel) as in FIG. 5A. […] (B) The exact same experiment as (A) except extracts from MCF-7 cells were used in place of 293 extracts. (**) indicates forms of caspase-7 that are likely a result of the alternative transcription start site at methionine-45 (C) Quantification of the relative activity of FL-C7 in uninhibited 293 extracts (from FIG. 5A), AB06 treated 293 extracts (from (A)) and uninhibited MCF-7 extracts (from (B)) (D) Inhibitor specificity of full-length and processed forms of caspase-7. Extracts (293) were activated for 5 min with cytochrome c/dATP and then incubated with NP-capped AOMK inhibitors containing the indicated primary amino acid sequences for 5 minutes before KMB01 was added and allowed to label residual caspase active sites for 30 minutes. Samples were analyzed by SDS-PAGE followed by biotin blotting using strepavidin-HRP (left panel) or western blotting for caspase-7 (right panel). Identities of labeled caspases are indicated. (E) Specificity of AB06 after prolonged incubation times. Extracts were treated with AB06 at the indicated concentrations simultaneously with cytochrome c/dATP. At the indicated times after activation, samples were labeled with KMB01 (10 μM) for 30 minutes. Labeled caspases were resolved by SDS-PAGE analysis followed by biotin blotting using strepavidin-HRP.
To further confirm our assignment of the labeled species we treated samples at various activation times with purified recombinant Bir3 domain of XIAP. […]
An additional surprising finding from the inhibitor studies was the overall lack of inhibition of the FL-C7 species by AB06 relative to mature p20 forms of caspase-7. […] Samples were analyzed for active site labeling and protein levels of both full-length and p20 forms of caspase-7 were monitored by western blot (FIG. 6D).
Hypotonic 293 extracts (73 μg of total protein) were activated as described above and allowed to incubate for the indicated times. […] Labeling was carried out for an additional 30 minutes and samples (13.5 μg total protein) were analyzed by SDS-PAGE and biotin blotting as described above.
Hypotonic 293 extracts (73 μg of total protein) were activated at 37° C. for 5 minutes as described above. […] Samples (13.5 μg total protein) were analyzed by SDS-PAGE and biotin blotting as described above

Cc1cccc(C)c1C(=O)OCC(=O)[C@H](CC(=O)O)NC(=O)[C@@H](NC(=O)[C@H](Cc1ccncc1)NC(=O)[C@H](CC(=O)O)NC(=O)Cc1ccc(O)c([N+](=O)[O-])c1)C(C)C [AB06, Np-D-3-V-D-DMBA]
inhibition of FL-C7 labeling: relatively insensitive to inhibition

Cc1cccc(C)c1C(=O)OCC(=O)[C@H](CC(=O)O)NC(=O)[C@@H](NC(=O)[C@H](CCC(=O)O)NC(=O)[C@H](CC(=O)O)NC(=O)Cc1ccc(O)c([N+](=O)[O-])c1)C(C)C [AB09, Np-D-E- V-D-DMBA]
inhibition of FL-C7 labeling: almost totally inhibited
